Laboratory results published in ChEMBL document CHEMBL1667845, “LC-MS and NMR characterization of the purple chromophore formed in the o-aminobenzaldehyde assay of dihydrodipicolinate synthase” (Bioorg Med Chem, 2011).
Calls of active or inactive are those of the source.

Assays:
Escherichia coli [1] = assay: Binding affinity to Escherichia coli DHDPS assessed as formation of purple chromophore after 10 to 40 mins by o-aminobenzaldehyde assay
Escherichia coli [2] = assay: Binding affinity to Escherichia coli DHDPS assessed as formation of purple chromophore after 70 mins by o-aminobenzaldehyde assay using UV-vis spectrophotometric analysis using UV-vis spectrophotometric analysis
Escherichia coli [3] = assay: Binding affinity to Escherichia coli DHDPS assessed as formation of purple chromophore after 30 to 60 mins by o-aminobenzaldehyde assay using UV-vis spectrophotometric analysis using LC-MS analysis

Measured: Activity

O=C(O)C1=N[C@H](C(=O)O)C[C@H](O)C1
active: all assays above
